This note sets out measurements from ChEMBL document CHEMBL4765295, “Synthesis, pharmacological profile and 2D-QSAR studies of curcumin-amino acid conjugates as potential drug candidates” (Eur J Med Chem, 2020).

≈ marks a conversion by molar mass, not a printed value. Where “and” joins values, the source holds several entries; their conditions need not be identical. Equal entries are not always repeated.

Test [1] concerns Rattus norvegicus. Nature of the test: Antiinflammatory activity in Wistar rat model of carrageenan-induced paw edema assessed as reduction in thickness of paw edema at 10 mg/kg, ip pretreated for 1 hr followed by carrageenan challenge and measured after 1 hr (reference value: 2.41 +/-0.05 mm). It counts as functional. To be noted: time 1 hr after carrageenan. (In general: The carrageenan paw model is a standard test of acute inflammation.)

The subject of test [2] is Rattus norvegicus. Nature of the test: Anti-inflammatory activity in Wistar rat assessed as inhibition of carrageenan-induced paw edema at 10 mg/kg, ip pretreated for 1 hr followed by carrageenan challenge and measured after 1 hr relative to control (reference value: 0.00 +/-0.02 %). In kind it is functional. To be noted: time 2 hrs.
Test [3] concerns Rattus norvegicus. Nature of the test: Antiinflammatory activity in Wistar rat model of carrageenan-induced paw edema assessed as reduction in thickness of paw edema at 10 mg/kg, ip pretreated for 1 hr followed by carrageenan challenge and measured after 2 hrs (reference value: 2.06 +/-0.09 mm). It counts as functional. To be noted: time 3 hrs.
For test [4], the system named is Rattus norvegicus. Kind of test: Anti-inflammatory activity in Wistar rat assessed as inhibition of carrageenan-induced paw edema at 10 mg/kg, ip pretreated for 1 hr followed by carrageenan challenge and measured after 2 hr relative to control (reference value: 0.00 +/-0.03 %). In kind it is functional. To be noted: time 3 hrs.
In test [5] the test system is Rattus norvegicus. Nature of the test: Antiinflammatory activity in Wistar rat model of carrageenan-induced paw edema assessed as reduction in thickness of paw edema at 10 mg/kg, ip pretreated for 1 hr followed by carrageenan challenge and measured after 3 hrs (reference value: 1.79 +/-0.07 mm). In kind it is functional. To be noted: time 4 hrs.
Test [6] deals with Rattus norvegicus. Nature of the test: Anti-inflammatory activity in Wistar rat assessed as inhibition of carrageenan-induced paw edema at 10 mg/kg, ip pretreated for 1 hr followed by carrageenan challenge and measured after 3 hr relative to control (reference value: 0.00 +/-0.1 %). It counts as functional. To be noted: time 4 hrs.
For test [7], the system named is Rattus norvegicus. Nature of the test: Antiinflammatory activity in Wistar rat model of carrageenan-induced paw edema assessed as reduction in thickness of paw edema at 10 mg/kg, ip pretreated for 1 hr followed by carrageenan challenge and measured after 4 hrs (reference value: 1.40 +/-0.10 mm). In kind it is functional. The following applies: time 5 hrs.
The test system of test [8] is Rattus norvegicus. Kind of test: Anti-inflammatory activity in Wistar rat assessed as inhibition of carrageenan-induced paw edema at 10 mg/kg, ip pretreated for 1 hr followed by carrageenan challenge and measured after 4 hr relative to control (reference value: 0.00 +/-0.4 %). In kind it is functional. The following applies: time 5 hrs.
Test [9] concerns Rattus norvegicus. Kind of test: Antiinflammatory activity in Wistar rat model of carrageenan-induced paw edema assessed as reduction in thickness of paw edema at 10 mg/kg, ip pretreated for 1 hr followed by carrageenan challenge and measured after 24 hrs (reference value: 0.83 +/-0.08 mm). It counts as functional. The following applies: time 25 hrs.
Test [10] relates to Rattus norvegicus. Nature of the test: Anti-inflammatory activity in Wistar rat assessed as inhibition of carrageenan-induced paw edema at 10 mg/kg, ip pretreated for 1 hr followed by carrageenan challenge and measured after 24 hr relative to control (reference value: 0.00 +/-0.3 %). It counts as functional. The following applies: time 25 hrs.
Test [11] concerns Rattus norvegicus. Nature of the test: Anti-inflammatory activity in Wistar rat assessed as inhibition of carrageenan-induced paw edema at 10 mg/kg, ip pretreated for 1 hr followed by carrageenan challenge and measured after 4 hr relative to indomethacin. In kind it is functional. The following applies: time 5 hrs.
Test [12] has as its system Splenocyte. Kind of test: Immunomodulatory activity in Swiss albino mouse splenocytes assessed as cell viability at 10 uM by measuring stimulation index incubated for 72 hrs in presence of mitogenic stimulus phytohaemagglutinin by MTT assay (reference value: 1.00 +/- 0.24). It counts as functional. On the technique in general: Tetrazolium dyes change colour on reduction, which living cells bring about.

In test [13] the test system is Splenocyte. Nature of the test: Immunomodulatory activity in Swiss albino mouse splenocytes assessed as cell viability at 10 uM by measuring inhibition of stimulation index incubated for 72 hrs in presence of mitogenic stimulus phytohaemagglutinin by MTT assay relative to indomethacin. To be noted: read-out: Activity. In kind it is functional.
Test [14] concerns Peritoneal macrophage. Kind of test: Antiinflammatory activity in […] mouse Peritoneal macrophages assessed as reduction in LPS-induced NO production by measuring reduction in stimulation index at 10 uM preincubated for 1 hr followed by LPS stimulation measured after 24 hrs by Griess method (reference value: 27.31 +/- 2.56 uM). It counts as functional. To be noted: time 25 hrs.

The test system of test [15] is Peritoneal macrophage. Nature of the test: Antiinflammatory activity in […] mouse Peritoneal macrophages assessed as inhibition of LPS-induced NO production at 10 uM preincubated for 1 hr followed by LPS stimulation measured after 24 hrs by Griess method relative to control (reference value: 0.0 %). It counts as functional. Further details: scale not given: the % may be the effect or the level left. To be noted: time 25 hrs. In general terms: Griess reagent forms a coloured azo dye with nitrite.

The next test relates to Staphylococcus aureus. Kind of test: Antibacterial activity against Staphylococcus aureus ATCC 25923 incubated for 18 hrs by agar dilution method. It counts as functional.
The test system of the next test is Streptococcus pyogenes. Nature of the test: Antibacterial activity against Streptococcus pyogenes ATCC 19615 incubated for 18 hrs by agar dilution method. It counts as functional.
A further test has as its system Salmonella typhimurium. Nature of the test: Antibacterial activity against Salmonella typhimurium ATCC 19430 incubated for 18 hrs by agar dilution assay. It counts as functional, Salmonella enterica subsp. enterica serovar Typhimurium. To be noted: Salmonella enterica.
The test system of a further test is Pseudomonas aeruginosa. Kind of test: Antibacterial activity against Pseudomonas aeruginosa ATCC 27853 incubated for 18 hrs by agar dilution assay. It counts as functional.
Another test has as its system Candida albicans. Kind of test: Antifungal activity against Candida albicans incubated for 18 to 24 hrs by CLSI method. The following applies: time 18-24 hrs. In kind it is functional.

`COc1cc(/C=C/C(=O)/C=C(O)/C=C/c2ccc(OC(=O)[C@H](Cc3c[nH]c4ccccc34)NC(=O)OCc3ccccc3)c(OC)c2)ccc1OC(=O)[C@H](Cc1c[nH]c2ccccc12)NC(=O)OCc1ccccc1`: the Activity with Rattus norvegicus [1] came out at 1.52 mm; in the test with Rattus norvegicus [3], 1.48 mm; with Rattus norvegicus [5], 1.36 mm; with Rattus norvegicus [7], 1.23 mm; in the test on Rattus norvegicus [9], 0.82 mm; in the test with Peritoneal macrophage [14], 24.28 µM. In addition, in the test with Peritoneal macrophage [15], the Activity is 11.08%. The inhibition in vivo at 10 mg/kg in the test with Rattus norvegicus [2] was determined as 37%; in the test with Rattus norvegicus [4], 28%; in the test with Rattus norvegicus [6], 24%; in the test on Rattus norvegicus [8], 12%; in the test on Rattus norvegicus [10], 1%; in the test with Rattus norvegicus [11], 14%. The Activity_index with Splenocyte [12] came out at 2.6. Besides, the viability at 10 µM in the test with Splenocyte [13] worked out at 46.5%. The MIC in the test with Staphylococcus aureus was 0.125 µg/mL and 0.124 µM; in the test with Streptococcus pyogenes it was 0.5 µg/mL and 0.496 µM; against Salmonella typhimurium, 0.125 µg/mL and 0.124 µM; against Pseudomonas aeruginosa, 0.25 µg/mL and 0.248 µM; against Candida albicans it was 1 µg/mL and 0.991 µM.
Turning to `COc1cc(/C=C/C(=O)/C=C(O)/C=C/c2ccc(OC(=O)[C@H](CCC(N)=O)NC(=O)OC(C)(C)C)c(OC)c2)ccc1OC(=O)[C@H](CCC(N)=O)NC(=O)OC(C)(C)C`, the Activity with Rattus norvegicus [1] stood at 2.16 mm; in the test on Rattus norvegicus [3] it was 1.73 mm; with Rattus norvegicus [5], 1.22 mm; in the test with Rattus norvegicus [7] it was 0.83 mm; in the test on Rattus norvegicus [9] it was 0.36 mm; with Peritoneal macrophage [14], 21.22 µM. Moreover, the Activity in the test with Peritoneal macrophage [15] came out at 22.29%. Moreover, the inhibition in vivo at 10 mg/kg in the test with Rattus norvegicus [2] was 10%; in the test with Rattus norvegicus [4], 16%; in the test on Rattus norvegicus [6] it was 32%; in the test with Rattus norvegicus [8] it was 41%; in the test with Rattus norvegicus [10], 57%; in the test on Rattus norvegicus [11], 47%. The Activity_index with Splenocyte [12] stood at 2.14. Also, in the test with Splenocyte [13], the viability at 10 µM came out at 56.6%. The MIC was 0.125 µg/mL and 0.152 µM in the test with Staphylococcus aureus; 0.25 µg/mL and 0.303 µM against Streptococcus pyogenes; 0.125 µg/mL and 0.152 µM in the test on Salmonella typhimurium; 1 µg/mL and 1.21 µM in the test on Pseudomonas aeruginosa; 2 µg/mL and 2.42 µM in the test with Candida albicans.
`CC[C@H](C)[C@H](NC(=O)OC(C)(C)C)C(=O)Oc1ccc(/C=C/C(=O)/C=C(O)/C=C/c2ccc(OC(=O)[C@@H](NC(=O)OC(C)(C)C)[C@@H](C)CC)c(OC)c2)cc1OC`: the Activity in the test with Rattus norvegicus [1] came out at 1.61 mm; in the test on Rattus norvegicus [3], 1.27 mm; with Rattus norvegicus [5] it was 0.91 mm; with Rattus norvegicus [7], 0.69 mm; in the test on Rattus norvegicus [9], 0.49 mm; with Peritoneal macrophage [14] it was 20.81 µM. Moreover, the Activity with Peritoneal macrophage [15] is recorded as 23.82%. The inhibition in vivo at 10 mg/kg with Rattus norvegicus [2] amounted to 33%; in the test on Rattus norvegicus [4], 38%; in the test on Rattus norvegicus [6] it was 49%; in the test with Rattus norvegicus [8], 51%; with Rattus norvegicus [10], 41%; with Rattus norvegicus [11] it was 59%. Moreover, in the test on Splenocyte [12], the Activity_index is recorded as 2.07. Besides, the viability at 10 µM in the test with Splenocyte [13] was 58.3%. Besides, the MIC in the test with Staphylococcus aureus was 0.125 µg/mL and 0.157 µM; with Streptococcus pyogenes it was 0.25 µg/mL and 0.314 µM; in the test on Salmonella typhimurium, 0.125 µg/mL and 0.157 µM; against Pseudomonas aeruginosa it was 1 µg/mL and 1.26 µM; in the test with Candida albicans it was 2 µg/mL and 2.52 µM.
`C[C@@H]1[C@H](O)[C@@H](C)/C=C/C=C/C=C/C=C/C=C/C=C/C=C/[C@H](O[C@@H]2O[C@H](C)[C@@H](O)[C@H](N)[C@@H]2O)C[C@@H]2O[C@](O)(C[C@@H](O)C[C@@H](O)[C@H](O)CC[C@@H](O)C[C@@H](O)CC(=O)O[C@H]1C)C[C@H](O)[C@H]2C(=O)O` [AMPHOTERICIN B]: the MIC with Candida albicans is 0.39 µg/mL and 0.422 µM.
Consider `COc1cc(/C=C/C(=O)/C=C(O)/C=C/c2ccc(OC(=O)[C@H](Cc3ccccc3)NC(=O)OC(C)(C)C)c(OC)c2)ccc1OC(=O)[C@H](Cc1ccccc1)NC(=O)OC(C)(C)C`, for which the Activity is on record as 1.47 mm with Rattus norvegicus [1]; 1.16 mm in the test with Rattus norvegicus [3]; 0.85 mm in the test with Rattus norvegicus [5]; 0.58 mm in the test with Rattus norvegicus [7]; 0.41 mm with Rattus norvegicus [9]. For the same compound, the inhibition in vivo at 10 mg/kg was determined as 39% with Rattus norvegicus [2]; 44% in the test with Rattus norvegicus [4]; 53% in the test with Rattus norvegicus [6]; 59% in the test with Rattus norvegicus [8]; 51% in the test on Rattus norvegicus [10]; 68% with Rattus norvegicus [11]. In addition, in the test with Splenocyte [12], the Activity_index is recorded as 2.56. For the same compound, the viability at 10 µM in the test on Splenocyte [13] was found to be 47.2%. In addition, the MIC against Staphylococcus aureus is 0.25 µg/mL and 0.29 µM; against Streptococcus pyogenes it was 0.125 µg/mL and 0.145 µM; against Salmonella typhimurium it was 0.25 µg/mL and 0.29 µM; in the test with Pseudomonas aeruginosa, 1 µg/mL and 1.16 µM; against Candida albicans, 1 µg/mL and 1.16 µM.
As for `COc1cc(/C=C/C(=O)/C=C(O)/C=C/c2ccc(OC(=O)[C@H](CCC(N)=O)NC(=O)OCc3ccccc3)c(OC)c2)ccc1OC(=O)[C@H](CCC(N)=O)NC(=O)OCc1ccccc1`, the Activity is recorded as 1.18 mm in the test on Rattus norvegicus [1]; 1.09 mm in the test with Rattus norvegicus [3]; 0.99 mm in the test on Rattus norvegicus [5]; 0.78 mm in the test with Rattus norvegicus [7]; 0.8 mm in the test with Rattus norvegicus [9]. Further, the inhibition in vivo at 10 mg/kg in the test with Rattus norvegicus [2] was determined as 51%; with Rattus norvegicus [4], 47%; with Rattus norvegicus [6], 45%; in the test with Rattus norvegicus [8] it was 44%; with Rattus norvegicus [10] it was 4%; with Rattus norvegicus [11], 51%. Also, the Activity_index in the test with Splenocyte [12] is recorded as 2.37. Moreover, the viability at 10 µM in the test with Splenocyte [13] amounted to 51.1%. In addition, the MIC is 0.5 µg/mL and 0.56 µM in the test with Staphylococcus aureus; 0.125 µg/mL and 0.14 µM against Streptococcus pyogenes; 0.5 µg/mL and 0.56 µM in the test with Salmonella typhimurium; 1 µg/mL and 1.12 µM against Pseudomonas aeruginosa; 0.5 µg/mL and 0.56 µM in the test on Candida albicans.
Consider `CCn1cc(C(=O)O)c(=O)c2cc(F)c(N3CCNCC3)cc21` [NORFLOXACIN], for which the MIC was 2.4 µg/mL (≈ 7.52 µM) against Salmonella typhimurium; 4.8 µg/mL and 15000 µM against Pseudomonas aeruginosa.
On to `O=C(O)c1cn(C2CC2)c2cc(N3CCNCC3)c(F)cc2c1=O` [CIPROFLOXACIN], for which the MIC against Salmonella typhimurium turned out to be 2.4 µg/mL (≈ 7.24 µM); against Pseudomonas aeruginosa, 4.8 µg/mL (≈ 14.5 µM).

As usually defined, the inhibition in vivo is the drop in the measured response relative to a control, in per cent. As a reminder, the MIC is the least concentration at which growth counts as inhibited.
